Format in all cases: in vivo
The subject of data set [1] is Diabrotica balteata (rootworm larvae). Briefly: Residual test, mortality of Diabrotica balteata larvae, Filter paper/maize seed (DB). To be noted: 72 h, 3 days, read-out: grading of mortality, DB. Here is the method:
(§1) The activity of the Product was determined using a variety of insect pests The Product was used in the form of liquid preparations containing from 100 to 500 parts per million (ppm) by weight of the Product. The preparations were made by dissolving the Product in acetone and diluting the solutions with water containing 0.1% by weight of a wetting agent sold under the trade name "SYNPERONIC" NX until the liquid preparations contained the required concentration of the Product "SYNPERONIC" is a Registered Trade Mark.
(§2) The test procedure adopted with regard to each pest was basically the same and comprised supporting a number of the pests on a medium which was usually a host plant or a foodstuff on which the pests feed, and treating either or both the pests and the medium with the preparations. The mortality of the pests was then assessed at periods usually varying from one to seven days after the treatment.
(§3) The results of the tests are given in Table III for each of the Products, at the rate in parts per million given in the second column as a grading of mortality designated as A, B or C wherein A indicates 80-100% mortality or knockdown, B indicates 50-79% mortality knockdown or knockdown and C indicates less than 50% mortality or knockdown.
(§4) In Table III the pest organism used is designated by a letter code and the pests species, the support medium or food, and the type and duration of test is given in Table II.

In data set [2] the test system is Tetranychus urticae (spider mites - adult). Briefly: Contact test, mortality of Tetranychus urticae adults on French bean leaf (TUa). The note with it: 72 h, 3 days, read-out: grading of mortality, TuA. Here is the method:
as §1, §2, §3, §4

Data set [3] relates to Heliothis virescens (tobacco budworm - larvae). Briefly: whole plant or invertebrate. The note with it: in Gossypium hirsutum, 72 h, read-out: grading of mortality, HV. Here is the method: as §1, §2, §3, §4
(tobacco budworm - larvae)

The next data set has as its system Myzus persicae (aphids). Briefly: Contact test, mortality of Myzus persicae on Chinese Cabbage leaf (MP). To be noted: 72 h, 3 days, read-out: grading of mortality, MP. The procedure: as §1, §2, §3, §4
For data set [4], the system named is Nilaparvata lugens (brown plant hopper - nymphs). Briefly: Contact test, mortality of Nilaparvata lugens nymphs on Rice plant (NL). The note with it: 72 h, 3 days, read-out: grading of mortality, NL. Here is the method:
as §1, §2, §3, §4

Data set [5] deals with Blattela germanica (cockroach nymphs). Briefly: Residual test, mortality of Blattela germanica nymphs (BG). To be noted: 3 days. Here is the method: as §1, §2, §3, §4
The test system of data set [6] is Musca domestica (houseflies - adults). Briefly: Contact test, mortality of Musca domestica adults (MD). To be noted: 24 h, 1 day, read-out: grading of mortality, MD. The procedure: as §1, §2, §3, §4
For data set [7], the system named is Tetranychus urticae (spider mites - ova). Briefly: Contact test, mortality of Tetranychus urticae ova on French bean leaf (TUe). To be noted: 144 h, 6 days, read-out: grading of mortality, TuE. The procedure: as §1, §2, §3, §4
For data set [8], the system named is Spodoptera exigua (lesser army worm - larvae). Briefly: Residual test, mortality of Spodoptera exigua larvae on Cotton leaf (SP). To be noted: 72 h, 3 days, read-out: grading of mortality, SP. Here is the method: as §1, §2, §3, §4
(lesser army worm - larvae)

Molecules are shown by their SMILES. Some results are limits rather than exact numbers.

Take `CCOc1ccc(C(COCc2cccc(Oc3ccc(Cl)cc3)c2)C(F)(F)F)cc1` (racemic) [Compound 3, (RS)-1,1,1-trifluoro-2-(4-ethoxyphenyl)-3-[3-(4-chlorophenoxy)benzyloxy]propane]: the mortality at 250 ppm in data set [1] (250 ppm) is 80 to 100%; in data set [2] (250 ppm), below 50%; in data set [3], below 50%; in the data set with Myzus persicae (aphids) (250 ppm), 80 to 100%; in data set [4] (250 ppm), 80 to 100%; in data set [6] (250 ppm) it was 80 to 100%. Moreover, in data set [5] (250 ppm), the “grading of mortality, BG” value was “A (80-100% mortality or knockdown)”.
Take `Fc1ccc(COCC(c2ccc(OC(F)(F)F)cc2)C(F)(F)F)cc1Oc1ccc(Cl)cc1` (racemic) [Compound 29, (RS)-1,1,1-Trifluoro-2-(4-trifluoromethoxyphenyl)-3-[3-(4-chlorophenoxy)-4-fluorobenzyloxy]propane]: the mortality at 500 ppm (in [1]; in data set [2]; in data set [3]; in the data set on Myzus persicae (aphids); in [4]; in data set [7]) was 80 to 100% each time. In addition, the mortality at 500 ppm in data set [8] and in data set [6] was 80 to 100% throughout. The “grading of mortality, BG” value in data set [5] (500 ppm) is given as “A (80-100% mortality or knockdown)”.
With `Fc1ccc(COCC(c2ccc(C(F)(F)F)cc2)C(F)(F)F)cc1Oc1ccccc1` (racemic) [Compound 38, (RS)-1,1,1-Trifluoro-2-(4-trifluoromethylphenyl)-3-(3-phenoxy-4-fluorobenzyloxy) propane], the mortality at 500 ppm (in data set [1]; in [2]; in data set [3]; in the data set with Myzus persicae (aphids); in data set [4]; in [7]) was 80 to 100% each time. For the same molecule, the mortality at 500 ppm in [8] and in [6] was 80 to 100% each time. Besides, the “grading of mortality, BG” value in [5] (500 ppm) is recorded as “A (80-100% mortality or knockdown)”.
As to `CCOc1ccc(C(COCc2ccc(F)c(Oc3ccc(Cl)cc3)c2)C(F)(F)F)cc1` (racemic) [Compound 5, (RS)-1,1,1-trifluoro-2-(4-ethoxyphenyl)-3-[3-(4-chlorophenoxy)-4-fluorobenzyloxy]propane], the mortality at 500 ppm lay within 80 to 100% in [1]; 50 to 79% in [2]; 80 to 100% in data set [3]; 80 to 100% in the data set on Myzus persicae (aphids); 80 to 100% in data set [4]; 80 to 100% in [6]. For the same molecule, in [5] (500 ppm), the “grading of mortality, BG” value is given as “A (80-100% mortality or knockdown)”.
For `FC(F)(F)c1ccc(C(COCc2cccc(Oc3ccccc3)c2)C(F)(F)F)cc1` (racemic) [Compound 39, (RS)-1,1,1-Trifluoro-2-(4-trifluoromethylphenyl)-3-(3-phenoxybenzyloxy)propane], the mortality at 500 ppm was 80 to 100% in [1]; below 50% in data set [2]; 80 to 100% in [3]; 80 to 100% in the data set with Myzus persicae (aphids); 80 to 100% in data set [4]; 80 to 100% in [7]. Besides, the mortality at 500 ppm in data set [8] and in data set [6] was 80 to 100% throughout. In data set [5] (500 ppm), the “grading of mortality, BG” value is given as “A (80-100% mortality or knockdown)”.

Values taken from US4891450A, “Process for intermediates for insecticidal compounds” (Imperial Chemical Industries PLC, priority 1987, dated 1990).
